Test results published in patent US20250340577A1, “BETA-LACTOMASE INHIBITORS AND USES THEREOF” (Case Western Reserve University, priority 2021, published 2025).
Where two headings read alike, the source gives them in different places.

Columns and labels:
A. baumannii 0057 = assay: MIC with cefepime, agar microdilution, CLSI; format: cell-based; conditions: compound fixed at 4 ug/ml; ADC-7
Description: (§1) Minimum inhibitory concentration (MIC) of MB076 and derivatives (PCF_038-043) in combination with cefepime.
(§2) MICs were determined by the Agar microdilution method, following CLSI guidelines. Compounds were tested at fixed concentration of 4 ug/ml in combination with cefepime.

E. coli ATCC BAA202 = assay: MIC with cefepime, agar microdilution, CLSI; format: cell-based; conditions: compound fixed at 4 ug/ml; SHV-1
Description: as §1, §2

E. coli DH10B pBC-SK P99 = assay: MIC with cefepime, agar microdilution, CLSI; format: cell-based; conditions: compound fixed at 4 ug/ml
Description: as §1, §2

[1] = system: E. coli DH10B pBC-SK PDC-3; assay: MIC with cefepime, agar microdilution, CLSI; format: cell-based; conditions: compound fixed at 4 ug/ml
Description: as §1, §2

[2] = system: E. coli DH10B pBC-SK control; assay: MIC with cefepime, agar microdilution, CLSI; format: cell-based; conditions: compound fixed at 4 ug/ml; B-lactamases none
Description: as §1, §2

E. coli pLTCF1 = assay: MIC with cefepime, agar microdilution, CLSI; format: cell-based; conditions: compound fixed at 4 ug/ml; CTX-M group 9
Description: as §1, §2

E. coli pLTCF2 = assay: MIC with cefepime, agar microdilution, CLSI; format: cell-based; conditions: compound fixed at 4 ug/ml
Description: as §1, §2

K. pneumoniae 253 = assay: MIC with cefepime, agar microdilution, CLSI; format: cell-based; conditions: compound fixed at 4 ug/ml; TEM-12, SHV-5, CTX-M
Description: as §1, §2

K. pneumoniae 255 = assay: MIC with cefepime, agar microdilution, CLSI; format: cell-based; conditions: compound fixed at 4 ug/ml; TEM-1, SHV-2
Description: as §1, §2

K. pneumoniae 266 = assay: MIC with cefepime, agar microdilution, CLSI; format: cell-based; conditions: compound fixed at 4 ug/ml; SHV-5
Description: as §1, §2

K. pneumoniae 34700 = assay: MIC with cefepime, agar microdilution, CLSI; format: cell-based; conditions: compound fixed at 4 ug/ml; CTX-M-15, SHV, TEM
Description: as §1, §2

K. pneumoniae ST17 = assay: MIC with cefepime, agar microdilution, CLSI; format: cell-based; conditions: compound fixed at 4 ug/ml; KPC-2, TEM, SHV, CTX-M-Group 1
Description: as §1, §2

K. pneumoniae ST258 C3 = assay: MIC with cefepime, agar microdilution, CLSI; format: cell-based; conditions: compound fixed at 4 ug/ml; KPC-3
Description: as §1, §2

[3] = system: K. pneumoniae original KPC-2; assay: MIC with cefepime, agar microdilution, CLSI; format: cell-based; conditions: compound fixed at 4 ug/ml
Description: as §1, §2

[4] = system: Klebsiella pneumonia/BAA-1705; assay: MIC of MB076 alone or in combination with cefepime or meropenem; format: cell-based; conditions: Klebsiella pneumoniae, BAA1705; single agent; read-out: MIC
Description: as §2

[5] = system: Klebsiella pneumonia/FDA-CDC AR-BANK#0097; assay: as above; format: cell-based; conditions: Klebsiella pneumoniae; single agent; read-out: MIC
Description: as §2

[6] = system: Klebsiella pneumonia/FDA-CDC AR-BANK#0098; assay: as above; format: cell-based; conditions: Klebsiella pneumoniae; single agent; read-out: MIC
Description: as §2

[7] = Single dose IV PK in plasma and thigh homogenate, thigh infection model; format: in vivo, mice; conditions: for AUC(0-inf) / AUC(0-t) / C0 / clearance / half-life / Vd: female, ICR, mouse; for Vd: read-out: Vss
Description: (§3) A single dose PK study with MB_076 has been conducted to evaluate antibiotic exposure over time in plasma samples and thigh homogenates following a single dose IV administration in K. pneumoniae AR-BANK #0098 (KPC-2) thigh infection model with neutropenic female ICR mice. Among the PK parameters, t1/2, C0, AUClast, AUCINF, Vss and CL were evaluated (Table 7), while for PD parameters, C0/MIC, AUClast/MIC and T>MIC were calculated (Table 8). In particular, the % time over the minimum inhibitory concentration (T>MIC) was calculated for all dose groups to determine the impact of MB076 efficacy in this animal model. Plots of concentration in plasma and thigh homogenate versus time were created and the linearity of the resulting PK parameters was assessed.

[8] = system: K. pneumoniae AR-BANK #0098 (KPC-2); format: in vivo; conditions: for T > MIC / Time High / Time Low: female, ICR, mouse, in vivo, iv
Description: as §3

[9] = plasma, 12.5 mg/kg IV single dose
[10] = plasma, 25 mg/kg IV single dose
[11] = plasma, 50 mg/kg IV single dose
[12] = plasma, 100 mg/kg IV single dose
[13] = thigh homogenate, 12.5 mg/kg IV single dose
[14] = thigh homogenate, 25 mg/kg IV single dose
[15] = thigh homogenate, 50 mg/kg IV single dose
[16] = thigh homogenate, 100 mg/kg IV single dose

Nc1nnc(SCC(=O)NC(Cn2cc(C(=O)O)nn2)B(O)O)s1 (centres unmarked) [MB076]
MIC of cefepime in combination with compound (A. baumannii 0057): 64 µg/mL | MIC of cefepime in combination with compound (E. coli ATCC BAA202): < 0.25 µg/mL | MIC of cefepime in combination with compound (E. coli DH10B pBC-SK P99): < 0.25 µg/mL | MIC of cefepime in combination with compound [1]: < 0.25 µg/mL | MIC of cefepime in combination with compound [2]: < 0.25 µg/mL | MIC of cefepime in combination with compound (E. coli pLTCF1): < 0.25 µg/mL | MIC of cefepime in combination with compound (E. coli pLTCF2): < 0.25 µg/mL | MIC of cefepime in combination with compound (K. pneumoniae 253): 8 µg/mL | MIC of cefepime in combination with compound (K. pneumoniae 255): 2 µg/mL | MIC of cefepime in combination with compound (K. pneumoniae 266): < 0.25 µg/mL | MIC of cefepime in combination with compound (K. pneumoniae 34700): 1 µg/mL | MIC of cefepime in combination with compound (K. pneumoniae ST17): 16 µg/mL | MIC of cefepime in combination with compound (K. pneumoniae ST258 C3): 1 µg/mL | MIC of cefepime in combination with compound [3]: < 0.25 µg/mL | MIC [4]: > 32 µg/mL | MIC [5]: > 32 µg/mL | MIC [6]: > 32 µg/mL | AUC(0-inf) [7, 9]: 7200 ng·h/mL | AUC(0-t) [7, 9]: 7100 ng·h/mL | C0 [7, 9]: 35.6 µg/mL | clearance [7, 9]: 29.1 mL/min/kg | half-life [7, 9]: 33.6 min | Vd [7, 9]: 0.65 L/kg | AUC(0-inf) [7, 10]: 17800 ng·h/mL | AUC(0-t) [7, 10]: 17600 ng·h/mL | C0 [7, 10]: 84 µg/mL | clearance [7, 10]: 23.4 mL/min/kg | half-life [7, 10]: 36.6 min | Vd [7, 10]: 0.8 L/kg | AUC(0-inf) [7, 11]: 39100 ng·h/mL | AUC(0-t) [7, 11]: 39000 ng·h/mL | C0 [7, 11]: 207 µg/mL | clearance [7, 11]: 21.3 mL/min/kg | half-life [7, 11]: 25.8 min | Vd [7, 11]: 0.35 L/kg | AUC(0-inf) [7, 12]: 104000 ng·h/mL | AUC(0-t) [7, 12]: 103000 ng·h/mL | C0 [7, 12]: 638 µg/mL | clearance [7, 12]: 16.1 mL/min/kg | half-life [7, 12]: 25.8 min | Vd [7, 12]: 0.21 L/kg | AUC(0-inf) [7, 13]: 1000 ng·h/mL | AUC(0-t) [7, 13]: 1000 ng·h/mL | C0 [7, 13]: 6.3 µg/mL | half-life [7, 13]: 14.4 min | Vd [7, 13]: 2.96 L/kg | AUC(0-inf) [7, 14]: 1800 ng·h/mL | AUC(0-t) [7, 14]: 1700 ng·h/mL | C0 [7, 14]: 17 µg/mL | half-life [7, 14]: 6.6 min | Vd [7, 14]: 1.38 L/kg | AUC(0-inf) [7, 15]: 6300 ng·h/mL | AUC(0-t) [7, 15]: 6300 ng·h/mL | C0 [7, 15]: 34 µg/mL | half-life [7, 15]: 12.6 min | Vd [7, 15]: 1.76 L/kg | AUC(0-inf) [7, 16]: 17300 ng·h/mL | AUC(0-t) [7, 16]: 17200 ng·h/mL | C0 [7, 16]: 108 µg/mL | half-life [7, 16]: 15 min | Vd [7, 16]: 1.07 L/kg | Linearity of C0 and AUClast with dose ([7]; plasma and thigh homogenates, 12.5-100 mg/kg IV): correlated linearly with dose | T > MIC ([8]; 12.5 mg/kg): 1.69% | Time High ([8]; 12.5 mg/kg): 0.40 h | Time Low ([8]; 12.5 mg/kg): 23.60 h | T > MIC ([8]; 12.5 mg/kg, 24 h): 0.24% | Time High ([8]; 12.5 mg/kg, 24 h): 0.06 h | Time Low ([8]; 12.5 mg/kg, 24 h): 23.94 h | T > MIC ([8]; 50 mg/kg): 1.75% | Time High ([8]; 50 mg/kg): 0.42 h | T > MIC ([8]; 50 mg/kg, 24 h): 3.89% | Time High ([8]; 50 mg/kg, 24 h): 0.93 h | T > MIC ([8]; 100 mg/kg): 2.72% | Time High ([8]; 100 mg/kg): 0.65 h | Time Low ([8]; 100 mg/kg): 23.35 h | T > MIC ([8]; 100 mg/kg, 24 h): 4.51% | Time High ([8]; 100 mg/kg, 24 h): 1.08 h | Time Low ([8]; 100 mg/kg, 24 h): 22.92 h | AUClast/MIC ([8]; plasma, 12.5 mg/kg IV): 1.77 h | AUClast/MIC ([8]; plasma, 25 mg/kg IV): 4.41 h | AUClast/MIC ([8]; plasma, 50 mg/kg IV): 9.75 h | AUClast/MIC ([8]; plasma, 100 mg/kg IV): 25.81 h | AUClast/MIC ([8]; thigh, 12.5 mg/kg IV): 0.25 h | AUClast/MIC ([8]; thigh, 25 mg/kg IV): 0.43 h | AUClast/MIC ([8]; thigh, 50 mg/kg IV): 1.56 h | AUClast/MIC ([8]; thigh, 100 mg/kg IV): 4.30 h
